Counter-ions that a name gives are not always drawn.

One assay concerns Acinetobacter baumannii ATCC17961. As to the kind of experiment: 90% growth inhibitory concentration (IC90) determination, antimicrobial susceptibility testing. Type of assay: cell-based. The conditions noted are these: Acinetobacter baumannii, ATCC17961, 16 h, 90% growth inhibition, Iso-Sensitest broth, OD 600 nm over 16 h, 35±2° C.; read-out: ATCC 17961 IC90. As for the experimental part:
Antimicrobial Susceptibility Testing:
90% Growth Inhibitory Concentration (IC90) Determination
The in vitro antimicrobial activity of the compounds was determined according to the following procedure:
The assay used a 10-points Iso-Sensitest broth medium to measure quantitatively the in vitro activity of the compounds against Acinetobacter baumannii ATCC17961 and ATCC17978.
Stock compounds in DMSO were serially twofold diluted (e.g. range from 50 to 0.097 μM final concentration) in 384 wells microtiter plates and inoculated with 49 μl the bacterial suspension in Iso-Sensitest medium to have a final cell concentration of ˜5×10^(5) CFU/ml in a final volume/well of 50 ul/well. Microtiter plates were incubated at 35±2° C.
Bacterial cell growth was determined with the measurement of optical density at λ=600 nm each minutes over a time course of 16 h. Growth inhibition was calculated during the logarithmic growth of the bacterial cells with determination of the concentration inhibiting 50% (IC50) and 90% (IC90) of the growth.
Table 2 provides the 90% growth inhibitory concentrations (IC90) in micromoles per liter of the compounds of present invention obtained against the strain Acinetobacter baumannii ATCC17961.
`COc1ccc(-c2cnc3c(Nc4ccc(C(=O)N[C@H]5CC[C@H](NC(=O)C[N+](C)(C)C)CC5)c(C)c4)nccn23)c(F)c1F` [Example 69, 2-(((1r,4r)-4-(4-((3-(2,3-Difluoro-4-methoxyphenyl)imidazo[1,2-a]pyrazin-8-yl)amino)-2-methylbenzamido)cyclohexyl)amino)-N,N,N-trimethyl-2-oxoethan-1-aminium Chloride]: the IC90 was 263 nM.

With `COc1ccc(-c2cnc3c(Nc4ccc(C(=O)N[C@@H]5CCN(C(=O)C[N+](C)(C)C)C5)c(C)c4)nccn23)c(F)c1F` [Example 70, (R)-2-(3-(4-((3-(2,3-difluoro-4-methoxyphenyl)imidazo[1,2-a]pyrazin-8-yl)amino)-2-methylbenzamido)pyrrolidin-1-yl)-N,N,N-trimethyl-2-oxoethan-1-aminium Chloride], the IC90 was 44.5 nM.

`CCc1cc(Nc2nccn3c(-c4ccc(OC)c(F)c4F)cnc23)ccc1C(=O)NC1CN(C(=O)C[N+](C)(C)CC(N)=O)C1` [Example 71, 2-Amino-N-(2-(3-(4-((3-(2,3-difluoro-4-methoxyphenyl)imidazo[1,2-a]pyrazin-8-yl)amino)-2-ethylbenzamido)azetidin-1-yl)-2-oxoethyl)-N,N-dimethyl-2-oxoethan-1-aminium Formate]: the IC90 is 67.7 nM.

For `COc1ccc(-c2cnc3c(Nc4ccc(C(=O)N[C@H]5C[C@@H](NC(=O)C[N+](C)(C)C)C5)c(C)c4)nccn23)c(F)c1F` [Example 72, 2-(((1s,3s)-3-(4-((3-(2,3-Difluoro-4-methoxyphenyl)imidazo[1,2-a]pyrazin-8-yl)amino)-2-methylbenzamido)cyclobutyl)amino)-N,N,N-trimethyl-2-oxoethan-1-aminium Chloride], the IC90 was 40.3 nM.

With `COc1ccc(-c2cnc3c(Nc4ccc(C(=O)NCCC[N+](C)(C)CCO)c(Cl)c4)nccn23)c(F)c1F` [Example 73, 3-(2-chloro-4-((3-(2,3-difluoro-4-methoxyphenyl)imidazo[1,2-a]pyrazin-8-yl)amino)benzamido)-N-(2-hydroxyethyl)-N,N-dimethylpropan-1-aminium Formate], the IC90 is 121 nM.

Regarding `CCc1cc(Nc2nccn3c(-c4ccc(OC)c(F)c4F)cnc23)ccc1C(=O)NCCOCC[N+](C)(C)CC#N` [Example 74, N-(Cyanomethyl)-2-(2-(4-((3-(2,3-difluoro-4-methoxyphenyl)imidazo[1,2-a]pyrazin-8-yl)amino)-2-ethylbenzamido)ethoxy)-N,N-dimethylethan-1-aminium Formate], the IC90 was determined as 31 nM.

With `CCOC(=O)C[N+](C)(C)CCOCCNC(=O)c1ccc(Nc2nccn3c(-c4ccc(OC)c(F)c4F)cnc23)cc1CC` [Example 75, N-(2-(2-(4-((3-(2,3-Difluoro-4-methoxyphenyl)imidazo[1,2-a]pyrazin-8-yl)amino)-2-ethylbenzamido)ethoxy)ethyl)-2-ethoxy-N,N-dimethyl-2-oxoethan-1-aminium Formate], the concentration for an effect of 90% (IC90) worked out at 65.8 nM.

Turning to `CCc1cc(Nc2nccn3c(-c4ccc(OC)c(F)c4F)cnc23)ccc1C(=O)NCCCCC[N+](C)(C)CC(N)=O` [Example 76, Mono(N-(2-amino-2-oxoethyl)-5-(4-((3-(2,3-difluoro-4-methoxyphenyl)imidazo[1,2-a]pyrazin-8-yl)amino)-2-ethylbenzamido)-N,N-dimethylpentan-1-aminium) monoformate Monoiodide], the 90% effect concentration (IC90) came to 27.4 nM.

As for `CCc1cc(Nc2nccn3c(-c4ccc(OC)c(F)c4F)cnc23)ccc1C(=O)N[C@H]1CC[C@H](NC(=O)C[N+](C)(C)C)CC1` [Example 77, Trans-[2-[[4-[[4-[[3-(2,3-Difluoro-4-methoxyphenyl)imidazo[1,2-a]pyrazin-8-yl]amino]-2-ethylbenzoyl]amino]cyclohexyl]amino]-2-oxoethyl]-trimethylazanium formate], the concentration for an effect of 90% (IC90) came to 342 nM.

Regarding `CCc1cc(Nc2nccn3c(-c4cn(CC#N)nc4C(F)(F)F)cnc23)ccc1C(=O)NCCOCC[N+]1(CC#N)CCOCC1` [Example 78, 4-(Cyanomethyl)-4-(2-(2-(4-((3-(1-(cyanomethyl)-3-(trifluoromethyl)-1H-pyrazol-4-yl)imidazo[1,2-a]pyrazin-8-yl)amino)-2-ethylbenzamido)ethoxy)ethyl)morpholin-4-ium Formate], the IC90 was found to be 467 nM.

With `CCc1cc(Nc2nccn3c(-c4ccc(OC(F)F)c(F)c4F)cnc23)ccc1C(=O)NCCCCC[N+](C)(C)CC(=O)N1CCNCC1` [Example 79, 5-[[4-[[3-[4-(Difluoromethoxy)-2,3-difluoro-phenyl]imidazo[1,2-a]pyrazin-8-yl]amino]-2-ethyl-benzoyl]amino]pentyl-dimethyl-(2-oxo-2-piperazin-1-yl-ethyl)ammonium bis(2,2,2-trifluoroacetate)], the 90% effect concentration (IC90) is 82.2 nM.

For the molecule `CCc1cc(Nc2nccn3c(-c4ccc(OC(F)F)c(F)c4F)cnc23)ccc1C(=O)NCC1C2C[N+](C)(CC3CNC3)CC12` (centres unmarked) [Example 80, N-[[3-(azetidin-3-ylmethyl)-3-methyl-3-azoniabicyclo[3.1.1]hexan-6-yl]methyl]-4-[[3-[4-(difluoromethoxy)-2,3-difluoro-phenyl]imidazo[1,2-a]pyrazin-8-yl]amino]-2-ethyl-benzamide bis(2,2,2-trifluoroacetate)], the IC90 was found to be 95.9 nM.

On to `CCc1cc(Nc2nccn3c(-c4ccc(OC(F)F)c(F)c4F)cnc23)ccc1C(=O)N1CCN(C(=O)C2CC[N+](C)(CC3CNC3)CC2)CC1` (centres unmarked) [Example 81, 1-(Azetidin-3-ylmethyl)-4-(4-(4-((3-(4-(difluoromethoxy)-2,3-difluorophenyl)imidazo[1,2-a]pyrazin-8-yl)amino)-2-ethylbenzoyl)piperazine-1-carbonyl)-1-methylpiperidin-1-ium 2,2,2-trifluoroacetate], for which the IC90 was 107 nM.

On to `CCc1cc(Nc2nccn3c(-c4ccc(OC(F)F)c(F)c4F)cnc23)ccc1C(=O)N1CCN(C(=O)C2CC[N+](C)(CCN)CC2)CC1` (centres unmarked) [Example 83, [4-[1-(2-aminoethyl)-1-methyl-piperidin-1-ium-4-carbonyl]piperazin-1-yl]-[4-[[3-[4-(difluoromethoxy)-2,3-difluoro-phenyl]imidazo[1,2-a]pyrazin-8-yl]amino]-2-ethyl-phenyl]methanone bis(2,2,2-trifluoroacetate)], for which the IC90 is 127 nM.

Regarding `CCc1cc(Nc2nccn3c(-c4ccc(OC(F)F)c(F)c4F)cnc23)ccc1C(=O)N1CCN(C(=O)C2CC[N+](C)(CC3CCNC3)CC2)CC1` (centres unmarked) [Example 84, [4-[[3-[4-(difluoromethoxy)-2,3-difluoro-phenyl]imidazo[1,2-a]pyrazin-8-yl]amino]-2-ethyl-phenyl]-[4-[1-methyl-1-(pyrrolidin-3-ylmethyl)piperidin-1-ium-4-carbonyl]piperazin-1-yl]methanone bis(2,2,2-trifluoroacetate)], the IC90 came to 132 nM.

Consider `CCc1cc(Nc2nccn3c(-c4ccc(OC(F)F)c(F)c4F)cnc23)ccc1C(=O)N1CCN(C(=O)C2CC[N+](C)(CCNC)CC2)CC1` (centres unmarked) [Example 85, [4-[[3-[4-(difluoromethoxy)-2,3-difluoro-phenyl]imidazo[1,2-a]pyrazin-8-yl]amino]-2-ethyl-phenyl]-[4-[1-methyl-1-[2-(methylamino)ethyl]piperidin-1-ium-4-carbonyl]piperazin-1-yl]methanone bis(2,2,2-trifluoroacetate)], for which the IC90 stood at 147 nM.

`CCc1cc(Nc2nccn3c(-c4ccc(OC(F)F)c(F)c4F)cnc23)ccc1C(=O)N1CCN(C(=O)C2CC[N+](C)(CC34CC(N)(C3)C4)CC2)CC1` (centres unmarked) [Example 86, [4-[1-[(3-amino-1-bicyclo[1.1.1]pentanyl)methyl]-1-methyl-piperidin-1-ium-4-carbonyl]piperazin-1-yl]-[4-[[3-[4-(difluoromethoxy)-2,3-difluoro-phenyl]imidazo[1,2-a]pyrazin-8-yl]amino]-2-ethyl-phenyl]methanone bis(2,2,2-trifluoroacetate)]: the IC90 turned out to be 168 nM.

Consider `CCc1cc(Nc2nccn3c(-c4ccc(OC(F)F)c(F)c4F)cnc23)ccc1C(=O)NCC1CC[N+](C)(CC2CNC2)C1` (centres unmarked) [Example 88, N-[[1-(azetidin-3-ylmethyl)-1-methyl-pyrrolidin-1-ium-3-yl]methyl]-4-[[3-[4-(difluoromethoxy)-2,3-difluoro-phenyl]imidazo[1,2-a]pyrazin-8-yl]amino]-2-ethyl-benzamide bis(2,2,2-trifluoroacetate)], for which the IC90 stood at 485 nM.

The same assay, now with this note: Acinetobacter baumannii, ATCC17961, 16 h, read-out: ATCC 17961 IC90.
Take `CCc1cc(Nc2nccn3c(-c4ccc(OC(F)F)c(F)c4F)cnc23)ccc1C(=O)NCCCNC(=O)C1CC[N+](C)(CC2CCNC2)CC1` (centres unmarked) [Example 82, N-[3-[[4-[[3-[4-(Difluoromethoxy)-2,3-difluoro-phenyl]imidazo[1,2-a]pyrazin-8-yl]amino]-2-ethyl-benzoyl]amino]propyl]-1-methyl-1-(pyrrolidin-3-ylmethyl)piperidin-1-ium-4-carboxamide bis (2,2,2-trifluoroacetate)]: the IC90 was 110 nM.

For the molecule `CCc1cc(Nc2nccn3c(-c4ccc(OC(F)F)c(F)c4F)cnc23)ccc1C(=O)NCC1CC[N+](C)(CC2CNC2)CC1` (centres unmarked) [Example 87, N-[[1-(azetidin-3-ylmethyl)-1-methyl-piperidin-1-ium-4-yl]methyl]-4-[[3-[4-(difluoromethoxy)-2,3-difluoro-phenyl]imidazo[1,2-a]pyrazin-8-yl]amino]-2-ethyl-benzamide Diformate], the IC90 was found to be 318 nM.

(Values after patent US20230141600A1, “IMIDAZOPYRAZINE DERIVATIVES” (priority 2020, published 2023).)
